Reference: publication PMC7168207, “Dibasic Derivatives of Phenylcarbamic Acid as Prospective Antibacterial Agents Interacting with Cytoplasmic Membrane” (Antibiotics, 2020)
“And” between values parts separate entries of the source, which are not always exact repeats. Identical values can stand only once. Marks after values point to notes of the source that are not given here.

Key:
[1] = tested on: Candida albicans CCM 8261; assay: minimum fungistatic concentration, RPMI 1640; format: cell-based; conditions: CCM8261, CA = C albicans CCM 8261, 48 h
Method: Fungistatic activity was tested similarly in RPMI (Roswell Park Memorial Institute) 1640 medium (Sigma, Pool, UK). […] A growth control and sterility control were included. The colonies of C. albicans grown overnight on Sabourad dextrose agar were suspended in sterile phosphate-buffered saline (PBS) to get cell density 0.5 McFarland. The inoculum was diluted to get a final concentration of 10^3 CFU/mL in the wells. Plates were inoculated and cultivated at 37 °C for 48 h. The minimum fungistatic concentration was visually evaluated as the lowest concentration of a tested compound, which inhibited 100% of yeast growth. 5-Flucytosin (Sigma, UK) was used as a positive control.

E. faecalis ATCC 29212 = assay: time-kill study; format: cell-based, Enterococcus faecalis; conditions: EF
Text: (§1) Time-kill studies are used to evaluate the dynamics of antibacterial activity. As mentioned above, a pre-test to determine minimum bactericidal concentration (MBC) by sub-cultivation of aliquots on agar was made (see Section 3.4). […] Time-kill studies were made with methicillin-susceptible S. aureus ATCC 29213 and methicillin-resistant MRSA 63718, vancomycin-susceptible E. faecalis ATCC 29212, and all three VRE isolates. Vancomycin was used as a control (Table 6).
(§2) The method of time-kill curves was used to study the bactericidal effect of selected compounds. […] The experiment was performed with S. aureus ATCC 29213, MRSA 63718, E. faecalis ATCC 29212, and all VRE isolates. […] The tubes were inoculated by bacterial inoculum in the exponential phase of growth to get a final concentration of 7.5 × 10^6 CFU/mL. The tubes were incubated statically at 37 °C. Immediately after inoculation and after 4, 6, 8, and 24 h, 100 µL of the sample was serially diluted (1:10) in PBS. Then, 2 × 20 µL from each dilution were put onto a Mueller–Hinton agar plate and cultivated at 37 °C for 24 h. After incubation, CFUs of dilutions containing 5–50 colonies were counted. Results were expressed as a decrease of log10(CFU) in each time compared to the starting inoculum. Bactericidal effect is defined as a −3log decrease of CFU/mL compared to the growth control in time 0. The test was made in duplicate on two separate occasions, and the results were averaged. The growth curves with error bars are shown in Figures S1 and S2 in Supplementary Materials.

VRE 342B = assay: time-kill study; format: cell-based, Enterococcus faecalis; conditions: VRE1
Text: as §1, §2

VRE 368 = assay: time-kill study; format: cell-based, Enterococcus faecalis; conditions: VRE2
Text: as §1, §2

VRE 725B = assay: time-kill study; format: cell-based, Enterococcus faecalis; conditions: VRE3
Text: as §1, §2

S. aureus ATCC 29213 = assay: crystal violet uptake (membrane permeability); format: cell-based, Staphylococcus aureus; conditions: 64 µg/mL, 1 h; two-way ANOVA, Tukey's test, p < 0.05
Method: The alternation in membrane permeability was detected by crystal violet assay. Bacterial suspension treated by compounds 1f, 1g, and 1h (all 64 µg/mL) for 1 h was prepared. The uptake of crystal violet was expressed as a percentage compared to the original crystal violet solution.
The method of crystal violet uptake was used to study membrane alteration. Bacterial suspension was cultivated to log phase in CaMH and then harvested at 4500 rpm for 5 min. The cells were washed twice and resuspended in PBS containing 64 µg/mL of the tested compounds. […] A growth control without antibiotics and a control containing the same amount of DMSO as treated tubes were included. The tubes were cultivated at 37 °C for 1 h. After that, the tubes were centrifuged at 4500 rpm for 15 min and washed twice in PBS. The cells were resuspended in PBS containing crystal violet (10 µg/mL). After 15 min incubation at 37 °C and centrifugation (15 min, 4500 rpm), the absorbance of supernatant at 595 nm was measured. The experiment was repeated three times, and the results were averaged. The percentage of crystal violet uptake was counted according to the equation:(1) % of uptake = OD595 of sample/OD595 of crystal violet solution × 100

CCCCCCCOc1cccc(NC(=O)OC(CN(CCC)CCC)CN2CCCC2)c1.Cl.Cl (centres unmarked) [1h, 1-[3-(Dipropylammonio)-2-({[3-(heptyloxy)phenyl]carbamoyl}oxy)propyl]pyrrolidinium dichloride]
MIC [1]: 8 µg/mL and 15 µM
Log10 Difference in CFU/mL from Inoculum (E. faecalis ATCC 29212; 1 × MIC, 4 h): −0.64 log10 CFU/mL
Log10 Difference in CFU/mL from Inoculum (E. faecalis ATCC 29212; 1 × MIC, 6 h): 0.16 log10 CFU/mL
Log10 Difference in CFU/mL from Inoculum (E. faecalis ATCC 29212; 1 × MIC, 8 h): 0.24 log10 CFU/mL
Log10 Difference in CFU/mL from Inoculum (E. faecalis ATCC 29212; 1 × MIC, 24 h): 0.34 log10 CFU/mL
Log10 Difference in CFU/mL from Inoculum (E. faecalis ATCC 29212; 2 × MIC, 4 h): −1.87 log10 CFU/mL
Log10 Difference in CFU/mL from Inoculum (E. faecalis ATCC 29212; 2 × MIC, 6 h): −1.36 log10 CFU/mL
Log10 Difference in CFU/mL from Inoculum (E. faecalis ATCC 29212; 2 × MIC, 8 h): −0.86 log10 CFU/mL
Log10 Difference in CFU/mL from Inoculum (E. faecalis ATCC 29212; 2 × MIC, 24 h): 0.42 log10 CFU/mL
Log10 Difference in CFU/mL from Inoculum (E. faecalis ATCC 29212; 4 × MIC, 4 h): −2.57 * log10 CFU/mL
Log10 Difference in CFU/mL from Inoculum (E. faecalis ATCC 29212; 4 × MIC, 6 h): −2.23 * log10 CFU/mL
Log10 Difference in CFU/mL from Inoculum (E. faecalis ATCC 29212; 4 × MIC, 8 h): −1.62 log10 CFU/mL
Log10 Difference in CFU/mL from Inoculum (E. faecalis ATCC 29212; 4 × MIC, 24 h): 0.49 log10 CFU/mL
Log10 Difference in CFU/mL from Inoculum (VRE 342B; 1 × MIC, 4 h): 0.07 log10 CFU/mL
Log10 Difference in CFU/mL from Inoculum (VRE 342B; 1 × MIC, 6 h): 1.08 log10 CFU/mL
Log10 Difference in CFU/mL from Inoculum (VRE 342B; 1 × MIC, 8 h): −0.08 log10 CFU/mL
Log10 Difference in CFU/mL from Inoculum (VRE 342B; 1 × MIC, 24 h): 1.42 log10 CFU/mL
Log10 Difference in CFU/mL from Inoculum (VRE 342B; 2 × MIC, 4 h): 0.09 log10 CFU/mL
Log10 Difference in CFU/mL from Inoculum (VRE 342B; 2 × MIC, 6 h): 0.41 log10 CFU/mL
Log10 Difference in CFU/mL from Inoculum (VRE 342B; 2 × MIC, 8 h): −0.02 log10 CFU/mL
Log10 Difference in CFU/mL from Inoculum (VRE 342B; 2 × MIC, 24 h): 0.47 log10 CFU/mL
Log10 Difference in CFU/mL from Inoculum (VRE 342B; 4 × MIC, 4 h): −0.78 log10 CFU/mL
Log10 Difference in CFU/mL from Inoculum (VRE 342B; 4 × MIC, 6 h): −0.99 log10 CFU/mL
Log10 Difference in CFU/mL from Inoculum (VRE 342B; 4 × MIC, 8 h): −0.66 log10 CFU/mL
Log10 Difference in CFU/mL from Inoculum (VRE 342B; 4 × MIC, 24 h): 0.85 log10 CFU/mL
Log10 Difference in CFU/mL from Inoculum (VRE 368; 1 × MIC, 4 h): 0.46 log10 CFU/mL
Log10 Difference in CFU/mL from Inoculum (VRE 368; 1 × MIC, 6 h): 0.71 log10 CFU/mL
Log10 Difference in CFU/mL from Inoculum (VRE 368; 1 × MIC, 8 h): 1.25 log10 CFU/mL
Log10 Difference in CFU/mL from Inoculum (VRE 368; 1 × MIC, 24 h): 1.13 log10 CFU/mL
Log10 Difference in CFU/mL from Inoculum (VRE 368; 2 × MIC, 4 h): 0.28 log10 CFU/mL
Log10 Difference in CFU/mL from Inoculum (VRE 368; 2 × MIC, 6 h): 0.54 log10 CFU/mL
Log10 Difference in CFU/mL from Inoculum (VRE 368; 2 × MIC, 8 h): −0.37 log10 CFU/mL
Log10 Difference in CFU/mL from Inoculum (VRE 368; 2 × MIC, 24 h): 0.66 log10 CFU/mL
Log10 Difference in CFU/mL from Inoculum (VRE 368; 4 × MIC, 4 h): −0.32 log10 CFU/mL
Log10 Difference in CFU/mL from Inoculum (VRE 368; 4 × MIC, 6 h): 0.05 log10 CFU/mL
Log10 Difference in CFU/mL from Inoculum (VRE 368; 4 × MIC, 8 h): 0.22 log10 CFU/mL
Log10 Difference in CFU/mL from Inoculum (VRE 368; 4 × MIC, 24 h): 0.37 log10 CFU/mL
Log10 Difference in CFU/mL from Inoculum (VRE 725B; 1 × MIC, 4 h): −0.70 log10 CFU/mL
Log10 Difference in CFU/mL from Inoculum (VRE 725B; 1 × MIC, 6 h): 0.08 log10 CFU/mL
Log10 Difference in CFU/mL from Inoculum (VRE 725B; 1 × MIC, 8 h): −0.05 log10 CFU/mL
Log10 Difference in CFU/mL from Inoculum (VRE 725B; 1 × MIC, 24 h): 0.92 log10 CFU/mL
Log10 Difference in CFU/mL from Inoculum (VRE 725B; 2 × MIC, 4 h): −1.81 log10 CFU/mL
Log10 Difference in CFU/mL from Inoculum (VRE 725B; 2 × MIC, 6 h): −1.31 log10 CFU/mL
Log10 Difference in CFU/mL from Inoculum (VRE 725B; 2 × MIC, 8 h): −0.81 log10 CFU/mL
Log10 Difference in CFU/mL from Inoculum (VRE 725B; 2 × MIC, 24 h): 0.95 log10 CFU/mL
Log10 Difference in CFU/mL from Inoculum (VRE 725B; 4 × MIC, 4 h): −1.75 * log10 CFU/mL
Log10 Difference in CFU/mL from Inoculum (VRE 725B; 4 × MIC, 6 h): −0.76 log10 CFU/mL
Log10 Difference in CFU/mL from Inoculum (VRE 725B; 4 × MIC, 8 h): −0.76 log10 CFU/mL
Log10 Difference in CFU/mL from Inoculum (VRE 725B; 4 × MIC, 24 h): 1.08 log10 CFU/mL
crystal violet uptake compared with 1% Tween 20 (positive control) (S. aureus ATCC 29213): No statistically significant difference
